Measured values reported in US20220241311A1, “METHODS AND MATERIALS FOR TREATING GLYCOSYLATION DISORDERS” (priority 2018, published 2022).
Entries after “also recorded” stand apart in the source; their conditions may differ.

What was measured:
[1] = system: ICAM-1; assay: ICAM-1 Western blotting with galactose supplementation, patient skin fibroblasts; conditions: patient 5; all doses
[2] = system: ICAM-1; assay: ICAM-1 Western blotting with galactose supplementation, healthy cells
[3] = system: serum transferrin; assay: Glycomics / high-resolution mass spectrometry of intact serum transferrin at T0 and T3; format: in vivo, human; conditions: for Ratio A-Glyco / DiGlyco transferrin / Ratio Mono-Glyco / DiGlyco transferrin / Ratio Trisialo-Glyco / DiGlyco transferrin: T = 3; for Ratio A-Glyco / DiGlyco transferrin: control range <=0.01040; for Ratio Mono-Glyco / DiGlyco transferrin: control range <=0.02700; for Ratio Trisialo-Glyco / DiGlyco transferrin: control range <=0.031900
Description: Liver transaminases (aspartate transaminase (AST) and alanine transaminase (ALT)), creatine kinase (CK), commonly assayed glycoproteins (thyroid stimulating hormone (TSH), thyroxine-binding globulin (TBG), and insulin-like growth factor binding protein 3 (IGF3BP)), and coagulation parameters (Factor IX, Factor XI, activated […] (aPTT), and anti-thrombin III (ATIII)), were measured in blood. Patent 1 had additional Factor XI, and XIII measurements. Serum galactose-1-phosphate and urine galactitol were measured to monitor safety and tolerability of galactose supplementation. Biochemical studies to evaluate changes in glycosylation included isoelectric focusing (IEF) of serum transferrin and glycomic analysis in blood by mass spectrometry.
Plasma (sodium heparin) or serum was used for glycomics analysis according to the procedure as described elsewhere (see, e.g., van Scherpenzeel et al., 2015 Transl Res 166:639-649.e1). Briefly, a 10 μl serum sample was purified using anti-transferrin beads. The eluate was analyzed on a microfluidic 6540 LC-chip-QTOF instrument (Agilent Technologies) using a C8 protein chip. Data analysis was performed using Agilent Mass Hunter Qualitative Analysis Software B.05.00.
The most abundant peaks in the transferrin mass spectrometry profiles were annotated, and ratios were calculated for the nonglycosylated (A-Glyco), monoglycosylated (Mono-Glyco), and trisialo- (Trisialo-Glyco) transferrin over the normal transferrin peak (tetrasialo; Di-Glyco). Ratios were compared in patient samples before D-gal supplementation and 18 weeks after starting oral supplements according to protocol. An example is shown in FIG. 5 for a severely (patient 2) and a mildly (patient 9) abnormal profile. A-Glyco- and Mono-Glyco ratios were abnormal in all patients. […] The most pronounced improvement was measured in patient 4. In patients 3 and 8, the A-Glyco peak normalized (Table 3, FIG. 6).

[4] = system: PGM1-CDG fibroblasts; assay: Galactose supplementation of PGM1-CDG fibroblasts, tracer based metabolomics; format: cell-based, human
Description: To probe the biochemical basis to galactose treatment, a tracer based metabolomics was employed to simultaneously track the activity of multiple pathways. Control and PGM1-CDG fibroblasts were cultured with 13C tagged glucose, with and without galactose. The 13C tracer was then incorporated into connected pathways after which, the cells were harvested to enable detection of metabolites by the mass-spectrometry.

[5] = 2 mM galactose added to the culture medium for 5 days

Structure (SMILES): O=C[C@H](O)[C@@H](O)[C@@H](O)[C@H](O)CO [D-gal, D-galactose]
- ICAM-1 expression [1]: No improvement
- ICAM-1 expression [2]: no effect
- Transferrin glycosylation ([3]; 8 patients, type 2 pattern shifting to mild type 1 pattern): Clear improvement
- Ratio A-Glyco / DiGlyco transferrin ([3]; Patient 1): 0.042
- Ratio Mono-Glyco / DiGlyco transferrin ([3]; Patient 1): 0.198
- Ratio Trisialo-Glyco / DiGlyco transferrin ([3]; Patient 1): 0.0778
- Ratio A-Glyco / DiGlyco transferrin ([3]; Patient 2): 0.046
- Ratio Mono-Glyco / DiGlyco transferrin ([3]; Patient 2): 0.213
- Ratio Trisialo-Glyco / DiGlyco transferrin ([3]; Patient 2): 0.0542
- Ratio A-Glyco / DiGlyco transferrin ([3]; Patient 3): 0.002
- Ratio Mono-Glyco / DiGlyco transferrin ([3]; Patient 3): 0.071
- Ratio Trisialo-Glyco / DiGlyco transferrin ([3]; Patient 3): 0.0549
- Ratio A-Glyco / DiGlyco transferrin ([3]; Patient 4): 0.314
- Ratio Mono-Glyco / DiGlyco transferrin ([3]; Patient 4): 0.632
- Ratio Trisialo-Glyco / DiGlyco transferrin ([3]; Patient 4): 0.0938
- Ratio A-Glyco / DiGlyco transferrin ([3]; Patient 5): 0.021
- Ratio Mono-Glyco / DiGlyco transferrin ([3]; Patient 5): 0.142
- Ratio Trisialo-Glyco / DiGlyco transferrin ([3]; Patient 5): 0.0740
- Ratio A-Glyco / DiGlyco transferrin ([3]; Patient 6): 0.044
- Ratio Mono-Glyco / DiGlyco transferrin ([3]; Patient 6): 0.293
- Ratio Trisialo-Glyco / DiGlyco transferrin ([3]; Patient 6): 0.0639
- Ratio A-Glyco / DiGlyco transferrin ([3]; Patient 7): 0.108
- Ratio Mono-Glyco / DiGlyco transferrin ([3]; Patient 7): 0.356
- Ratio Trisialo-Glyco / DiGlyco transferrin ([3]; Patient 7): 0.0551
- Ratio A-Glyco / DiGlyco transferrin ([3]; Patient 8 (non-compliant)): 0.003
- Ratio Mono-Glyco / DiGlyco transferrin ([3]; Patient 8 (non-compliant)): 0.081
- Ratio Trisialo-Glyco / DiGlyco transferrin ([3]; Patient 8 (non-compliant)): 0.0712
- Ratio A-Glyco / DiGlyco transferrin ([3]; Patient 9): 0.019
- Ratio Mono-Glyco / DiGlyco transferrin ([3]; Patient 9): 0.127
- Ratio Trisialo-Glyco / DiGlyco transferrin ([3]; Patient 9): 0.0561
- Transferrin glycosylation pattern ([3]; T3): None of the patients showed a normalized pattern
- Transferrin glycosylation ([3]; patient 5): no change was observed
- A-glyco fraction ([3]; patients 3 and 8, 18 weeks): completely normalized
- Cellular UDP-hexose pools [4, 5]: significant increase
- Cellular glycosylation [4, 5]: improved cellular glycosylation
- Levels of UDP-glucose and UDP-galactose ([4]; culture media supplemented with galactose): restored depleted levels; also recorded: significantly increased
- Glycosylation ([4]; culture supplemented with galactose): restarted stalled glycosylation
